Measurements published in the METLIN SMRT retention time set (Domingo-Almenara et al. 2019).

Experiment: gradient 5% acetonitrile 3 min, to 50% in 2 min, to 85% in 15 min, held 3 min, 100 µL/min
Conditions: column: Zorbax Extend-C18 2.1 x 50 mm; eluents: water / acetonitrile, 0.1% formic acid
Summary of the method: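 Over 3 months, pure standards in mixtures of ~100 molecules were run by HPLC coupled to a quadrupole time-of-flight mass spectrometer in positive and negative ionization mode. The column was a Zorbax Extend-C18 (2.1 × 50 mm, 1.8 μm) at 100 μL/min, eluted with water and acetonitrile each holding 0.1% formic acid, with 40 μL dead and 900 μL dwell volumes. Retention time was determined from adduct peaks chosen by software and checked manually.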

Row | RP-LC retention time [s] | Structure (SMILES)
1 | 1330 | Cc1cccc(-c2nc(-c3ccc(-n4cccn4)nc3)no2)c1
2 | 700 | COc1cccc(N2CCN(C(=O)c3cc4c(=O)n(C)ccc4n3C)CC2)c1
3 | 842 | CCOC(=O)C1CCN(C(=O)Cn2nc(C)c3sc(-c4ccccc4)nc3c2=O)CC1
4 | 992 | O=S(=O)(c1cccs1)N1CCc2nc(-c3ccccc3)ncc2C1
5 | 1140 | Cc1cccc(Sc2nccnc2N2CCC(C(=O)NCCCc3ccccc3)CC2)c1
6 | 1110 | COc1ccc(OC)c(NC(=O)N2c3ccccc3CC2c2nc(C3CC3)no2)c1 (configuration not stated)
7 | 774 | COc1ccc(Oc2ncc(-c3ccc(C(=O)NC4CC4)cc3)cn2)cc1
8 | 1070 | O=C(c1ccc(Cl)s1)N1CCc2nc(-c3ccc(F)cc3)ncc2C1
9 | 1030 | CCn1ccc2ccc(CCC(=O)N3CCN(c4ccc(F)cc4)CC3)cc21
10 | 579 | O=C1CCc2cc(NC(=O)c3cccnc3)ccc2N1
11 | 609 | CCN1CCN(c2cc(C)c3cc(NC(=O)COc4ccccc4)ccc3n2)CC1
12 | 923 | Cc1nc(-c2ccc3c(c2)CCN3C(=O)Cc2cccc(F)c2)no1
13 | 645 | COc1ccc(CC(=O)N2CCN(c3nc4ccncc4n(C)c3=O)CC2)c(Cl)c1
14 | 931 | Cc1c(C(=O)NC(C)C)cnn1-c1ccc(-c2nc(C(C)C)no2)cn1
15 | 595 | O=c1ccc(-c2cccc(Br)c2)nn1Cc1ccncc1
16 | 998 | COc1ccc(N2CC(c3nc(-c4ccc(Cl)cc4)no3)CC2=O)cc1 (configuration not stated)
17 | 716 | CSc1ccc(-c2nc3ccc(C)cn3c2Nc2ccc3c(c2)OCCO3)cc1
18 | 755 | CC1CCCCN1CCNS(=O)(=O)c1ccccc1-c1nc(-c2ccc(F)cc2)no1 (configuration not stated)
19 | 639 | O=C(NCc1ccc(F)cc1F)C1CCN(c2cn[nH]c(=O)c2)CC1
20 | 755 | CSc1ccc(CNC(=O)c2cn3cccc(C)c3n2)cc1

More lines, now with the values behind:

Row | Structure (SMILES) | RP-LC retention time [s]
21 | CCN1C(=O)CN(C(=O)C2CC2)CC12CCOCC2 | 584
22 | CCOc1ccc(C(=O)NCC(=O)Nc2nc3ccccc3[nH]2)cc1 | 648
23 | Cc1ccc(-n2c(N3CCCC(C(=O)Nc4ccc(Cl)cc4)C3)nc3ccsc3c2=O)cc1 (configuration not stated) | 1080
24 | CCOc1ccc2nc(C(=O)NC3CCCC3)cn2n1 | 822
25 | CS(=O)(=O)c1ccc(NC(=O)CSc2ccc(N3CCCC(C(=O)NC4CC4)C3)nn2)cc1 (configuration not stated) | 608
26 | Cc1csc(-c2cc(S(=O)(=O)NCC(C)C)cn2CC(=O)N2CCCCC2)n1 | 926
27 | OC(C#Cc1ccccc1)(c1ccccc1)c1ccccc1 | 764
28 | COC(=O)[C@H]1[C@H]2C[C@H]3c4[nH]c5ccccc5c4CCN3C[C@H]2CC[C@@H]1O | 671
29 | CCCC(=O)Nc1cc2c(cc1N1CCC(C(=O)OCC)CC1)n(C)c(=O)c(=O)n2C | 804
30 | CCC(=O)N1c2ccc(S(=O)(=O)N3CCCCC3)cc2CC1C(=O)NCc1ccc(N(C)C)cc1 (configuration not stated) | 691
31 | O=C(NCc1cccs1)C1CCCN(C(=O)C2Sc3ccccc3NC2=O)C1 (configuration not stated) | 725
32 | O=C(Nc1nc2ccccc2s1)c1ccc([N+](=O)[O-])cc1Cl | 877
33 | CSc1cccc(NC(=O)N2CC(c3nc(C)no3)C3(CCOCC3)C2)c1 (configuration not stated) | 760
34 | O=S(=O)(c1cccnc1)N1CCN(Cc2nnnn2-c2ccc(F)c(F)c2)CC1 | 733
35 | CCCn1ccc2sc(C)c(C(=O)NCCC(C)C)c2c1=O | 901
36 | Cn1c(=O)n(CCN2CCCCC2)c(=O)c2c1nc1n2CCCN1c1ccc(Cl)cc1 | 668
37 | O=C1NC(C(=O)NC2CC2)Cn2cccc21 (configuration not stated) | 569
